SMILES strings stand for the structures.

Data set [1] deals with T1, recombinant HIV reverse transcriptase (HIV RTR) (Human immunodeficiency virus type 1 group M subtype B, UniProt P04585).
T1 construct: recombinant HIV reverse transcriptase (HIV RTR)
As to the kind of experiment: Reverse Transcriptase Assay (incorporation of tritiated deoxyguanosine monophosphate into acid-precipitable cDNA). Format: biochemical. Conditions: poly r(C).oligo d(G)12-18 and dGTP at about Km; 37° C., 45 minutes. The procedure: The assay measures the incorporation of tritiated deoxyguanosine monophosphate by recombinant HIV reverse transcriptase (HIV RTR) (or other RT) into acid-precipitable cDNA at the Km values of dGTP and poly r(C).oligo d(G)12-18.
Thirty uL of a reaction mixture containing equal volumes of: 500 mM Tris.HCl (pH 8.2), 300 mM MgCl2, 1200 mM KCl, 10 mM DTT, 400 μg/mL poly r(c).oligo d(G) [prepared by dissolving 1.5 mg (25 U) poly r(C).oligo d(G) in 1.5 ml sterile distilled H2 O and diluting to 400 μg/ml], 0.1 μCi/μl [^3 H] dGTP, 160 μM dGTP, was added to 10 μl sterile distilled H2 O, and 2.5 μl of potential inhibitor. An aliquot of 10 μL of 5 nM purified HIV RTR was added to initiate thereaction. The mixture was incubated at 37° C. for 45 minutes.
After incubation is complete, the tubes were cooled in ice for 5 minutes. Ice-cold 13% TCA containing 10 mM NaPPi (200 μl) are added and the mixture incubated on ice for 30 minutes. The precipitated cDNA is removed by filtration using presoaked glass filters [TCA, NaPPi ]. The precipitate is then washed with 1N HCl, 10 mM NaPPi.
The filter discs are then counted in a scintillation counter.
Under these conditions [dGTP] and poly r(C).oligo d(G)12-18 each are approximately equal to the appropriate Km value. Approximately 5-6,000 cpm of [^3 H] GMP are incorporated into acid-precipitable material. The RT reaction is concentration- and time-dependent. […] The calculated IC50 value for the compounds (Ia) and (Ib) of this incertion are as follows: […]

Data set [2] is described as follows: Incubation With Human Liver Slices (metabolite formation by HPLC). The class given is in vitro ADME. Conditions: 2.85 μmol compound (II), 1.25 g wet weight liver slices (donor), Williams' Medium E, 37° C., four hours. The procedure:
Compound (II) (2.85 μmol) was incubated with liver slices (1.25 g wet weight) from a human donor in 20 ml of Williams' Medium E at 37° C. under an atmosphere of 5% CO2 in air for four hours. The metabolites were extracted into ethyl acetate followed by evaporation of the solvent. The residue was reconstituted in methanol and compared on HPLC with an extract of rat liver slice incubation of compound (II). The HPLC effluents were monitored by a UV-diode array detector, and fractionated for liquid scintillation spectrophotometry.

With `CCc1cc(NCc2nc3c(Cl)ccc(Cl)c3o2)c(O)nc1C` [Compound II, 3-[(4,7-dichlorobenzoxazol-2-yl)-methyl]amino-5-ethyl-6-methyl-2(1H)-pyridinone], in data set [1], the IC50 worked out at 20 nM. Also, the “formation of metabolites indicated by HPLC comparisons of UV and radioactivity profiles” value in data set [2] was “formation of Ia and Ib in the human liver slices incubation”.
Consider `Cc1[nH]c(=O)c(NCc2nc3c(Cl)ccc(Cl)c3o2)cc1C(C)O` (racemic) [Ia, 3-[(4,7-dichlorobenzoxazol-2-yl)methylamino]-5-(1-hydroxyethyl)-6-methylpyridin-2(1H)-one], for which the IC50 in data set [1] came out at 1050 nM.
The same measure, in the same setting: under `CCc1cc(NCc2nc3c(Cl)ccc(Cl)c3o2)c(=O)[nH]c1CO` [Ib, 3-[(4,7-dichlorobenzoxazole-2-yl)methylamino]-5-ethyl-6-hydroxymethylpyridi n-2(1H)-one] stands 14 nM.

The term IC50 denotes the concentration that inhibits the measured activity by half.

Source of the values: US5200329A, “Method of hydroxylating 3-[(4,7-dichlorobenzoxazol-2-yl)methyl]amino-5-ethyl-6-methyl-2-(1H)-pyr idinone by incubation with liver slices” (Merck & Co., Inc., priority 1992, dated 1993).
